# Measured values as given in PubChem BioAssay (NCI).
# “And” between values parts separate entries of the source, which are not always exact repeats. Identical values can stand only once.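 These data come from cells grown in 96-well plates and exposed to compound for 48 hours at five concentrations. GI50 = concentration required for 50% inhibition of growth. TGI: total growth inhibition.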
# How the values were obtained:
# Test in all cases: growth of human tumour cells (NCI), 48 h
# HL-60(TB) leukemia = tested on: HL-60(TB) leukemia
# CAKI-1 renal = tested on: CAKI-1 renal
# NCI-H460 lung = tested on: NCI-H460 lung
# MOLT-4 leukemia = tested on: MOLT-4 leukemia
# HT29 colon = tested on: HT29 colon
# SR leukemia = tested on: SR leukemia
# COLO 205 colon = tested on: COLO 205 colon
# HOP-92 NSCLC = tested on: HOP-92 NSCLC
# SK-MEL-28 melanoma = tested on: SK-MEL-28 melanoma
# HOP-62 NSCLC = tested on: HOP-62 NSCLC
Compound,TGI (HL-60(TB) leukemia),TGI (CAKI-1 renal),TGI (NCI-H460 lung),TGI (MOLT-4 leukemia),TGI (HT29 colon),TGI (SR leukemia),TGI (COLO 205 colon),TGI (HOP-92 NSCLC),TGI (SK-MEL-28 melanoma),TGI (HOP-62 NSCLC),GI50 (HL-60(TB) leukemia),GI50 (COLO 205 colon),GI50 (HOP-92 NSCLC),GI50 (SK-MEL-28 melanoma),GI50 (HOP-62 NSCLC)
Cc1nc2ccccc2n1CCc1nc2ccccc2[nH]1,> 100 µM,> 100 µM,> 100 µM,> 100 µM,> 100 µM,> 100 µM,> 100 µM,> 100 µM,> 100 µM,> 100 µM,–,–,–,–,–
C=CC(=O)N1C/C(=C\c2ccc(F)cc2)C(=O)/C(=C/c2ccc(F)cc2)C1,> 100 µM,1.7 µM,2.04 µM,–,0.285 µM,> 100 µM,1.81 µM,8.62 µM,–,1.41 µM,–,–,–,–,–
CC(C)(CN1CCCCC1)C(=O)CC(SCCS(=O)(=O)O)c1ccc(Cl)c(Cl)c1 (configuration not stated),5.63 µM,12.9 µM,11.9 µM,8.06 µM,10.9 µM,6.38 µM,7.25 µM,6.18 µM,–,18.7 µM,–,–,–,–,–
C=C1C[C@]23CC[C@@H]4C(CO)(CO)CC(=O)C[C@]4(C)[C@@H]2C(O)C[C@H]1C3 (some centres not stated),> 100 µM,> 100 µM,> 100 µM,> 100 µM,> 100 µM,> 100 µM,> 100 µM,> 100 µM,> 100 µM,> 100 µM,–,–,–,–,–
Oc1cc(Br)cc2cc(Br)cnc12,0.654 µM,42.6 µM,22.1 µM,16.1 µM,> 100 µM,11 µM,> 100 µM,83.8 µM,> 100 µM,> 100 µM,–,–,–,–,–
C=C1C(=O)O[C@H]2[C@@H](O)[C@H](C)CCC/C(C)=C/CC[C@@]3(C)O[C@@H]3C[C@@H]12,> 27.4 µM,6.9 µM,16.8 µM,–,28.7 µM,14.7 µM,12.3 µM,8.04 µM,33.5 µM,56.3 µM,–,–,–,–,–
NCCCN1CCN(CCCNc2ccc3ncn4c5ccccc5c(=O)c2c34)CC1,10.1 µM,9.02 µM,6.24 µM,> 25 µM,6.7 µM,> 25 µM,2.66 µM,> 25 µM,19.6 µM,> 25 µM,–,–,–,–,–
CC(C)=CCC/C(C)=C/CCC1(C)C2COC(=O)C21 (configuration not stated),46.4 µM,> 100 µM,> 100 µM,> 100 µM,> 100 µM,> 100 µM,> 100 µM,87 µM,> 100 µM,> 100 µM,–,–,–,–,–
C1CN(C23OC4(N5CCOCC5)C5C6CC(C7C6C4C72)C53)CCO1 (configuration not stated),> 100 µM,> 100 µM,> 100 µM,> 100 µM,> 100 µM,> 100 µM,> 100 µM,> 100 µM,> 100 µM,> 100 µM,–,–,–,–,–
CCSc1nn(-c2c3ccccc3nc3ccccc23)c(=S)s1,> 100 µM,> 100 µM,> 100 µM,> 100 µM,> 100 µM,> 100 µM,> 100 µM,> 100 µM,> 100 µM,> 100 µM,–,–,–,–,–
CC(C)(C)OC(=O)N[C@@H](Cc1ccccc1)C(=O)N1CC[C@@H](C(=O)N2[C@H]3CC4CC[C@@]3(CS2(=O)=O)C4(C)C)N1,> 100 µM,> 100 µM,> 100 µM,> 100 µM,> 100 µM,> 100 µM,> 100 µM,> 100 µM,> 100 µM,> 100 µM,–,–,–,–,–
O=c1oc2ccccc2cc1-c1nc2ccccc2s1,> 100 µM,15.6 µM,53 µM,–,25.8 µM,> 100 µM,–,22.3 µM,> 66 µM,17.8 µM,–,–,–,–,–
O=C(c1ccccc1)c1ccc2c(c1)N=C(c1ccc(Cl)c(Cl)c1)CC(c1ccc3ccccc3c1)N2 (configuration not stated),> 100 µM,> 100 µM,> 100 µM,> 100 µM,> 100 µM,> 100 µM,> 100 µM,> 100 µM,> 100 µM,> 100 µM,–,–,–,–,–
Clc1cccc(Cl)c1C1ON=C(c2ccccc2)N1C12CC3CC(CC(C3)C1)C2 (configuration not stated),8.72 µM,> 100 µM,> 100 µM,46.3 µM,> 100 µM,> 100 µM,30.5 µM,75.3 µM,> 100 µM,> 100 µM,–,–,–,–,–
CCn1c2ccccc2c2cc(NC(=O)c3c(C)[nH]c(=O)[nH]c3=S)ccc21,> 100 µM,> 100 µM,> 100 µM,> 100 µM,> 100 µM,> 100 µM,46.3 µM,> 100 µM,> 100 µM,> 100 µM,–,–,–,–,–
Nc1ncc(Cc2nn3c(COc4ccc(Cl)cc4)nnc3s2)s1,> 100 µM,> 100 µM,> 100 µM,> 100 µM,> 100 µM,> 100 µM,> 100 µM,> 100 µM,> 100 µM,> 100 µM,–,–,–,–,–
c1csc(-c2csc(-c3cccs3)c2)c1,> 100 µM,> 100 µM,> 100 µM,89.2 µM,> 100 µM,66.8 µM,32.8 µM,69.8 µM,> 100 µM,> 100 µM,–,–,–,–,–

Compound,TGI (HL-60(TB) leukemia),TGI (CAKI-1 renal),TGI (NCI-H460 lung),TGI (MOLT-4 leukemia),TGI (HT29 colon),TGI (SR leukemia),TGI (COLO 205 colon),TGI (HOP-92 NSCLC),TGI (SK-MEL-28 melanoma),TGI (HOP-62 NSCLC),GI50 (HL-60(TB) leukemia),GI50 (COLO 205 colon),GI50 (HOP-92 NSCLC),GI50 (SK-MEL-28 melanoma),GI50 (HOP-62 NSCLC)
COc1ccc(/C=C(\C#N)c2nc(-c3cc4ccccc4oc3=O)cs2)cc1,> 100 µM,> 100 µM,57.1 µM,> 100 µM,> 100 µM,> 100 µM,> 100 µM,36.2 µM,> 100 µM,29.5 µM,–,–,–,–,–
COC(=O)C[C@H]1[C@]2(C)C3=C(C)[C@H](c4ccoc4)CC3O[C@@H]2[C@@H]2OC(=O)[C@]3(C)CCC(=O)[C@@]1(C)[C@@H]23 (some centres not stated),54.8 µM,> 100 µM,> 100 µM,46.8 µM,> 100 µM,59.6 µM,> 100 µM,> 100 µM,> 100 µM,> 100 µM,–,–,–,–,–
CN(CCc1ccccn1)C(=S)N/N=C/c1ccccn1,< 0.01 µM,17.2 µM,2.07 µM,< 0.025 µM,43.1 µM,< 0.01 µM,0.727 µM,3.66 µM,> 100 µM,3.48 µM,–,–,–,–,–
Cc1ccc2c3ccc4c(c3n(C)c2c1)C(=O)C=CC4=O,3.9 µM,> 10 µM,> 10 µM,2.61 µM,> 10 µM,4.73 µM,5.51 µM,7.26 µM,> 10 µM,> 10 µM,–,–,–,–,–
CCOC(=O)c1c(C)n(CCN2CCN(C)CC2)c2ccc(OC)cc12,58 µM,> 100 µM,> 100 µM,68 µM,71.2 µM,46.3 µM,31.6 µM,80.5 µM,32 µM,> 100 µM,–,–,–,–,–
O=C1C(=O)C(CCCO)(CCCO)CCCCCCCCC1(CCCO)CCCO,29.9 µM,> 100 µM,> 100 µM,–,> 100 µM,> 100 µM,> 100 µM,> 100 µM,> 100 µM,> 100 µM,–,–,–,–,–
CCCCC[C@@H]1OC(=O)[C@@]2(CC3c4ccccc4C2c2ccccc23)[C@H]1C(=O)OC,33.1 µM,> 100 µM,> 100 µM,–,> 100 µM,> 100 µM,30.5 µM,> 100 µM,–,> 100 µM,–,–,–,–,–
COc1ccc(C2=C(N)c3ccccc3C2=O)cc1,> 100 µM,> 100 µM,> 100 µM,> 100 µM,> 100 µM,> 100 µM,> 100 µM,> 100 µM,> 100 µM,> 100 µM,–,–,–,–,–
CNc1ccc([N+](=O)[O-])cc1C(=O)N1CCC[C@H]1CO,> 100 µM,> 100 µM,> 100 µM,> 100 µM,> 100 µM,> 100 µM,> 100 µM,> 100 µM,> 100 µM,> 100 µM,–,–,–,–,–
CCCCCCCCCCCOCCC1C(C(C)OCCN2CCCC2)OC2OC(C)(C)OC21 (configuration not stated),3.36 µM,6.52 µM,5.05 µM,5.93 µM,3.5 µM,1.83 µM,3.88 µM,4.75 µM,3.08 µM,4.38 µM,–,–,–,–,–
Nc1ncnc2c(C3OC(CO)C(O)C3O)c[nH]c12 (configuration not stated),–,0.402 µM,0.048 µM and 0.0128 µM,–,0.343 µM and 1.21 µM,0.272 µM,–,0.00836 µM and 0.0664 µM,0.51 µM and 0.734 µM,0.342 µM and 0.0897 µM,0.000721 µM,0.0193 µM,0.00215 µM,0.0452 µM,0.0136 µM
Fc1ccccc1C1SCC2=Nc3ccccc3CN21 (configuration not stated),> 100 µM,> 100 µM,> 100 µM,> 100 µM,> 100 µM,> 100 µM,> 100 µM,> 100 µM,> 100 µM,> 100 µM,–,–,–,–,–
CC(CN(C)C)C(O)(c1ccccc1)c1ccccc1 (configuration not stated),> 100 µM,> 100 µM,> 100 µM,> 100 µM,> 100 µM,> 100 µM,> 100 µM,> 100 µM,> 100 µM,> 100 µM,–,–,–,–,–
O=C(NC(Cc1c[nH]c2ccccc12)C(=O)O)/C(=C/c1ccccc1)NC(=O)c1ccccc1 (configuration not stated),> 100 µM,> 100 µM,> 100 µM,> 100 µM,> 100 µM,> 100 µM,> 100 µM,94.8 µM,> 100 µM,> 100 µM,–,–,–,–,–
CCOC(=O)C1C2C1C1C(C(=O)OCC)C21 (configuration not stated),> 100 µM,> 100 µM,> 100 µM,> 100 µM,> 100 µM,> 100 µM,> 100 µM,> 100 µM,> 100 µM,> 100 µM,–,–,–,–,–
COc1ccc(N2C(=O)CSC2c2cc(OC)c(OC)c(OC)c2)cc1 (configuration not stated),69.8 µM,62.7 µM,63.5 µM,> 100 µM,57.1 µM,51.3 µM,54.1 µM,> 100 µM,> 100 µM,–,–,–,–,–,–
